Test results published in patent US20250002507A1, “7,8-DIHYDRO-5H-1,6-NAPHTHYRIDINE DERIVATIVES AS POSITIVE ALLOSTERIC MODULATORS OF THE MUSCARINIC ACETYLCHOLINE RECEPTOR M4 FOR TREATING NEUROLOGICAL AND PSYCHIATRIC DISORDERS” (Vanderbilt University, priority 2021, published 2025).
pEC50: −log10 of the molar value.

Target: T1, Human M4 (Homo sapiens, UniProt P08173)
T1 construct: expressed in transfected cells
T1 sequence (P08173 1-479): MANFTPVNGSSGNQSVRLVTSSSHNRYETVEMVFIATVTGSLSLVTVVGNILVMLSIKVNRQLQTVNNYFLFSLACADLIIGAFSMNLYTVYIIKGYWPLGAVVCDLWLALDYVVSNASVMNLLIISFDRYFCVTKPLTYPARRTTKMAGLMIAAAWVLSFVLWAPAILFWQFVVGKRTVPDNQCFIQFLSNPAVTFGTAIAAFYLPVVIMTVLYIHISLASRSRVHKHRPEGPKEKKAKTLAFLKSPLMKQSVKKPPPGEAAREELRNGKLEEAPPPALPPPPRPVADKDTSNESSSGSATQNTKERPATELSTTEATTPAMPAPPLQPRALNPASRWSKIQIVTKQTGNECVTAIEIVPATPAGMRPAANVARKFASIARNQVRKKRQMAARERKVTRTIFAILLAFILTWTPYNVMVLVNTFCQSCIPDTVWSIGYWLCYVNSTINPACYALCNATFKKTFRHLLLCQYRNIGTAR
Assay: mAChR M4 cell-based functional assay (calcium flux, potentiation of EC20 acetylcholine response), hM4-Gqi5 CHO-K1 cells
Conditions: for Emax at 30 µM / Emax: CHO-K1; for Emax at 30 µM: % ACh maximum at 30 μM, human M4, read-out: Emax; for pEC50: hM4-Gqi5 CHO-K1 cells, calcium flux, PAM of EC20 acetylcholine, read-out: Human M4 EC50
Method in brief: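 CHO-K1 cells stably expressing human M4 with chimeric Gqi5, loaded with Fluo-4 AM 50 min at 37 °C; calcium flux read by FDSS. 11-point 1:3 compound curves added, then EC20 acetylcholine at 144 s; potentiation of the EC20 response fitted by four-parameter logistic to give EC50 and Emax.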

Structure (SMILES) | Emax at 30 µM | pEC50 | Emax
Cc1c(N2CCc3ncc(C(=O)N4CC(C)(C)C4)cc3C2)nn2cnnc2c1C [Compound 123, (3,3-dimethylazetidin-1-yl)-[6-(7,8-dimethyl-[1,2,4]triazolo[4,3-b]pyridazin-6-yl)-7,8-dihydro-5H-1,6-naphthyridin-3-yl]methanone] | 77% | 5.32 | –
Cc1c(N2CCc3ncc(C(=O)NC(C)c4nccs4)cc3C2)nn2cnnc2c1C (stereo not shown) [Compound 124, 6-(7,8-dimethyl-[1,2,4]triazolo[4,3-b]pyridazin-6-yl)-N-(1-thiazol-2-ylethyl)-7,8-dihydro-5H-1,6-naphthyridine-3-carboxamide] | 63% | 5.43 | –
Cc1c(N2CCc3ncc(C(=O)NCCN4CCCC4)cc3C2)nn2cnnc2c1C [Compound 125, 6-(7,8-dimethyl-[1,2,4]triazolo[4,3-b]pyridazin-6-yl)-N-(2-pyrrolidin-1-ylethyl)-7,8-dihydro-5H-1,6-naphthyridine-3-carboxamide] | 85% | 5.14 | –
Cc1c(N2CCc3ncc(C(=O)N(C)Cc4ccco4)cc3C2)nn2cnnc2c1C [Compound 126, 6-(7,8-dimethyl-[1,2,4]triazolo[4,3-b]pyridazin-6-yl)-N-(2-furylmethyl)-N-methyl-7,8-dihydro-5H-1,6-naphthyridine-3-carboxamide] | 55% | – | –
Cc1c(N2CCc3ncc(C(F)(F)F)cc3C2)nn2cnnc2c1C [Compound 127, 6-(7,8-dimethyl-[1,2,4]triazolo[4,3-b]pyridazin-6-yl)-3-(trifluoromethyl)-7,8-dihydro-5H-1,6-naphthyridine] | 107% | 6.82 | –
Cc1ccc2c(n1)CCN(c1nn3cnnc3c(C)c1C)C2 [Compound 128, 6-(7,8-dimethyl-[1,2,4]triazolo[4,3-b]pyridazin-6-yl)-2-methyl-7,8-dihydro-5H-1,6-naphthyridine] | – | 6.42 | 103%
CCn1ccc(-c2cnc3c(c2)CN(c2nn4cnnc4c(C)c2C)CC3)n1 [Compound 129, 6-(7,8-dimethyl-[1,2,4]triazolo[4,3-b]pyridazin-6-yl)-3-(1-ethylpyrazol-3-yl)-7,8-dihydro-5H-1,6-naphthyridine] | 99% | 6.68 | –
CCn1ccc(-c2cnc3c(c2)CN(c2nn4ccnc4cc2C)CC3)n1 [Compound 131, 3-(1-ethylpyrazol-3-yl)-6-(7-methylimidazo[1,2-b]pyridazin-6-yl)-7,8-dihydro-5H-1,6-naphthyridine] | 81% | 6.04 | –
Cc1cc2nncn2nc1N1CCc2ncc(-c3cc(-c4ccccc4)no3)cc2C1 [Compound 133, 5-[6-(7-methyl-[1,2,4]triazolo[4,3-b]pyridazin-6-yl)-7,8-dihydro-5H-1,6-naphthyridin-3-yl]-3-phenyl-isoxazole] | 68% | 5.87 | –
Cc1cnn(C)c1-c1cnc2c(c1)CN(c1nn3cnnc3c(C)c1C)CC2 [Compound 134, 3-(2,4-dimethylpyrazol-3-yl)-6-(7,8-dimethyl-[1,2,4]triazolo[4,3-b]pyridazin-6-yl)-7,8-dihydro-5H-1,6-naphthyridine] | 88% | 6.52 | –
Cc1cc2nccn2nc1N1CCc2ncc(-c3c(C)cnn3C)cc2C1 [Compound 136, 3-(2,4-dimethylpyrazol-3-yl)-6-(7-methylimidazo[1,2-b]pyridazin-6-yl)-7,8-dihydro-5H-1,6-naphthyridine] | 66% | 5.92 | –
Cc1c(N2CCc3ncc(-c4ccnn4C)cc3C2)nn2cnnc2c1C [Compound 137, 6-(7,8-dimethyl-[1,2,4]triazolo[4,3-b]pyridazin-6-yl)-3-(2-methylpyrazol-3-yl)-7,8-dihydro-5H-1,6-naphthyridine] | 99% | 6.53 | –
Cc1cc2nncn2nc1N1CCc2ncc(-c3ccnn3C)cc2C1 [Compound 138, 3-(2-methylpyrazol-3-yl)-6-(7-methyl-[1,2,4]triazolo[4,3-b]pyridazin-6-yl)-7,8-dihydro-5H-1,6-naphthyridine] | 105% | 6.24 | –
Cc1cc2nccn2nc1N1CCc2ncc(-c3ccnn3C)cc2C1 [Compound 139, 6-(7-methylimidazo[1,2-b]pyridazin-6-yl)-3-(2-methylpyrazol-3-yl)-7,8-dihydro-5H-1,6-naphthyridine] | 83% | 6.36 | –
Cc1cc2nccn2nc1N1CCc2ncc(-c3cnn(C)c3)cc2C1 [Compound 141, 6-(7-methylimidazo[1,2-b]pyridazin-6-yl)-3-(1-methylpyrazol-4-yl)-7,8-dihydro-5H-1,6-naphthyridine] | 91% | 6.23 | –
Cc1c(N2CCc3ncc(-c4cnn(C5CC5)c4)cc3C2)nn2cnnc2c1C [Compound 142, 3-(1-cyclopropylpyrazol-4-yl)-6-(7,8-dimethyl-[1,2,4]triazolo[4,3-b]pyridazin-6-yl)-7,8-dihydro-5H-1,6-naphthyridine] | 93% | 6.77 | –
Cc1c(N2CCc3ncc(-c4cnn(CC(C)C)c4)cc3C2)nn2cnnc2c1C [Compound 146, 6-(7,8-dimethyl-[1,2,4]triazolo[4,3-b]pyridazin-6-yl)-3-(1-isobutylpyrazol-4-yl)-7,8-dihydro-5H-1,6-naphthyridine] | 107% | 6.64 | –
Cc1cc2nccn2nc1N1CCc2ncc(-c3cnn(C4CCNCC4)c3)cc2C1 [Compound 150, 6-(7-methylimidazo[1,2-b]pyridazin-6-yl)-3-[1-(4-piperidyl)pyrazol-4-yl]-7,8-dihydro-5H-1,6-naphthyridine] | 87% | 6.25 | –
Cc1cc2nncn2nc1N1CCc2ncccc2C1 [Compound 151, 6-(7-methyl-[1,2,4]triazolo[4,3-b]pyridazin-6-yl)-7,8-dihydro-5H-1,6-naphthyridine] | – | – | 93%

Further lines, with some results ahead:

Emax at 30 µM | pEC50 | Structure (SMILES) | Emax
93% | – | CCn1ccc(-c2cnc3c(c2)CN(c2nn4cnnc4cc2C)CC3)n1 [Compound 130, 3-(1-ethylpyrazol-3-yl)-6-(7-methyl-[1,2,4]triazolo[4,3-b]pyridazin-6-yl)-7,8-dihydro-5H-1,6-naphthyridine] | –
81% | 5.71 | Cc1c(N2CCc3ncc(-c4cc(-c5ccccc5)no4)cc3C2)nn2cnnc2c1C [Compound 132, 5-[6-(7,8-dimethyl-[1,2,4]triazolo[4,3-b]pyridazin-6-yl)-7,8-dihydro-5H-1,6-naphthyridin-3-yl]-3-phenyl-isoxazole] | –
81% | 6.11 | Cc1cc2nncn2nc1N1CCc2ncc(-c3c(C)cnn3C)cc2C1 [Compound 135, 3-(2,4-dimethylpyrazol-3-yl)-6-(7-methyl-[1,2,4]triazolo[4,3-b]pyridazin-6-yl)-7,8-dihydro-5H-1,6-naphthyridine] | –
100% | 6.43 | Cc1cc2nncn2nc1N1CCc2ncc(-c3cnn(C)c3)cc2C1 [Compound 140, 3-(1-methylpyrazol-4-yl)-6-(7-methyl-[1,2,4]triazolo[4,3-b]pyridazin-6-yl)-7,8-dihydro-5H-1,6-naphthyridine] | –
89% | 6.86 | Cc1cc2nncn2nc1N1CCc2ncc(-c3cnn(C4CC4)c3)cc2C1 [Compound 143, 3-(1-cyclopropylpyrazol-4-yl)-6-(7-methyl-[1,2,4]triazolo[4,3-b]pyridazin-6-yl)-7,8-dihydro-5H-1,6-naphthyridine] | –
44% | 6.58 | Cc1cc2nccn2nc1N1CCc2ncc(-c3cnn(CC(C)C)c3)cc2C1 [Compound 144, 3-(1-isobutylpyrazol-4-yl)-6-(7-methylimidazo[1,2-b]pyridazin-6-yl)-7,8-dihydro-5H-1,6-naphthyridine] | –
74% | 6.52 | Cc1cc2nccn2nc1N1CCc2ncc(-c3cnn(C4CC4)c3)cc2C1 [Compound 145, 3-(1-cyclopropylpyrazol-4-yl)-6-(7-methylimidazo[1,2-b]pyridazin-6-yl)-7,8-dihydro-5H-1,6-naphthyridine] | –
99% | 6.32 | Cc1cc2nncn2nc1N1CCc2ncc(-c3cnn(CC(C)C)c3)cc2C1 [Compound 147, 3-(1-isobutylpyrazol-4-yl)-6-(7-methyl-[1,2,4]triazolo[4,3-b]pyridazin-6-yl)-7,8-dihydro-5H-1,6-naphthyridine] | –
106% | 6.53 | Cc1c(N2CCc3ncc(-c4cnn(C5CCNCC5)c4)cc3C2)nn2cnnc2c1C [Compound 148, 6-(7,8-dimethyl-[1,2,4]triazolo[4,3-b]pyridazin-6-yl)-3-[1-(4-piperidyl)pyrazol-4-yl]-7,8-dihydro-5H-1,6-naphthyridine] | –
107% | 6.50 | Cc1cc2nncn2nc1N1CCc2ncc(-c3cnn(C4CCNCC4)c3)cc2C1 [Compound 149, 6-(7-methyl-[1,2,4]triazolo[4,3-b]pyridazin-6-yl)-3-[1-(4-piperidyl)pyrazol-4-yl]-7,8-dihydro-5H-1,6-naphthyridine] | –
